What was measured:
Type in all cases: biochemical
PRMT8 = PRMT8 (Homo sapiens, UniProt Q9NR22); assay: radioactive assay (Reaction Biology Corp.), inhibition of PRMT8
Experimental: (§1) Next, the inhibition activity of the library was investigated for five PRMT members from type I PRMTs.
(§2) The PRMT 4, 6 and 8 methylation assays were performed by Reaction Biology corp.

PRMT6 = PRMT6 (Homo sapiens, UniProt Q96LA8); assay: radioactive assay (Reaction Biology Corp.), inhibition of PRMT6
Experimental: as §1, §2

PRMT1 = target: T1, PRMT1 (Homo sapiens, UniProt Q99873); assay: SAHH-coupled fluorescence assay, inhibition of PRMT1; details: for IC50: read-out: IC50 FOR PRMT1
T1 construct: made in house
T1 sequence (Q99873 whole entry, species assumed): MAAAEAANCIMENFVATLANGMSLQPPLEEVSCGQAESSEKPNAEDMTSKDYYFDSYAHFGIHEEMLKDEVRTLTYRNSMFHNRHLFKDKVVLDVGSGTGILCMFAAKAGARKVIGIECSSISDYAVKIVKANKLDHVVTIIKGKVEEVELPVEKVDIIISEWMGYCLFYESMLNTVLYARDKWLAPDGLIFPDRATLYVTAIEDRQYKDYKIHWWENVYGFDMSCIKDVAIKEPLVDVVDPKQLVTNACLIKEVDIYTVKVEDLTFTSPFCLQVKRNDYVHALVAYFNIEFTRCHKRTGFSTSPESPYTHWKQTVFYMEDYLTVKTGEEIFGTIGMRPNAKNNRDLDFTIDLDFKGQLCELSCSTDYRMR
Experimental: (§3) A fluorescence-based SAHH-coupled assay was applied to study the inhibition activity of all synthesized compounds on PRMT 1 and 3.
(§4) The PRMT1 methylation assay was performed under the following conditions in a final well volume of 100 μL: 2.5 mM HEPES (pH=7.0), 25 mM NaCl, 25 μM EDTA, 50 μM TCEP, 0.01% Triton X-100, 5 μM SAHH, 0.1 μM PRMT1, 10 μM AdoMet, and 10 μM ThioGlo4. […] The fluorescence signal was monitored on a BMG CLARIOstar microplate reader with excitation at 400 nm and emission at 465 nm for 15 min. Data were processed using GraphPad Prism software 8.0.
as §1
as §4, with “A fluorescence-based SAHH-coupled assay was applied to determine the inhibition activity of all synthesized compounds on PRMT 1 and 3. The PRMT1” for “The PRMT1”, “software 8.0. All experiments were performed in duplicate.” for “software 8.0.”

PRMT4 = target: T2, PRMT4 (Homo sapiens, UniProt Q86X55); assay: radioactive assay (Reaction Biology Corp.), inhibition of PRMT4
T2 sequence (Q86X55 1-608): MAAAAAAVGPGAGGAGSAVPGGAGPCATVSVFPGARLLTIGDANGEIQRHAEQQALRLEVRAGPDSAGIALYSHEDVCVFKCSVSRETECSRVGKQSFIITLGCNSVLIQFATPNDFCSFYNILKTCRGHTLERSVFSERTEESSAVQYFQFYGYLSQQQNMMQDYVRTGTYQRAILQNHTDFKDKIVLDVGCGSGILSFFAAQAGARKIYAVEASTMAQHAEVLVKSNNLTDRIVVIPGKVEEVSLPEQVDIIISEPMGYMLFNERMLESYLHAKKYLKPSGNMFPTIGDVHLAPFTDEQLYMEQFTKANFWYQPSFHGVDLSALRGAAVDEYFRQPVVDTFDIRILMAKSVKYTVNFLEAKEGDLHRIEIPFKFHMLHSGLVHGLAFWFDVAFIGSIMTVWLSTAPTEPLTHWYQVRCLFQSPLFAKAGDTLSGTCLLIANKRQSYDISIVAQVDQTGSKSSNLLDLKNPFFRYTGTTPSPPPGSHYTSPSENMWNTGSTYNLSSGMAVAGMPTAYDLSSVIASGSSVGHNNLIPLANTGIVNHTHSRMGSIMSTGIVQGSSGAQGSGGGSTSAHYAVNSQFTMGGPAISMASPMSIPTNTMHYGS
Experimental: as §1, §2

PRMT3 = PRMT3 (Homo sapiens, UniProt O60678); assay: SAHH-coupled fluorescence assay, inhibition of PRMT3; set-up: PRMT3 (residues 211-531) was cloned into the pET28a-MHL expression vector; tag of the pET28a-MHL vector (not described); made in house; host or cells: Escherichia coli BL21(DE3)
PRMT3, sequence (O60678 211-531): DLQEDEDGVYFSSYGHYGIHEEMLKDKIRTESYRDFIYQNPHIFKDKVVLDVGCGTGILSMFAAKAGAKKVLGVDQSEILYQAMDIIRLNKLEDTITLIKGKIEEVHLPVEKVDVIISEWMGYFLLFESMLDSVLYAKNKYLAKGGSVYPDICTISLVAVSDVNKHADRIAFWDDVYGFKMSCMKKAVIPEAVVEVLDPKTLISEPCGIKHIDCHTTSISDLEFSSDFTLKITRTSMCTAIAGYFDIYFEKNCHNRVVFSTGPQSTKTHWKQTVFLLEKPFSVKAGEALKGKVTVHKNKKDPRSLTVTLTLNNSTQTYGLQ
Experimental: as §3
(§5) The PRMT3 methylation assay was performed under the following conditions in a final well volume of 100 μL: 20 mM Tris (pH=7.5), 0.01% Triton X-100, 5 μM SAHH, 0.25 μM PRMT3, 30 μM AdoMet, and 15 μM ThioGlo4. […] Fluorescence was monitored on a BMG CLARIOstar microplate reader with excitation 380 nm and emission 505 nm. Data were processed by using GraphPad Prism software 8.0. All experiments were performed in duplicate.
as §1
as §5, with “8.0.” for “8.0. All experiments were performed in duplicate.”

PRMT8, sequence (Q9NR22 whole entry, species assumed): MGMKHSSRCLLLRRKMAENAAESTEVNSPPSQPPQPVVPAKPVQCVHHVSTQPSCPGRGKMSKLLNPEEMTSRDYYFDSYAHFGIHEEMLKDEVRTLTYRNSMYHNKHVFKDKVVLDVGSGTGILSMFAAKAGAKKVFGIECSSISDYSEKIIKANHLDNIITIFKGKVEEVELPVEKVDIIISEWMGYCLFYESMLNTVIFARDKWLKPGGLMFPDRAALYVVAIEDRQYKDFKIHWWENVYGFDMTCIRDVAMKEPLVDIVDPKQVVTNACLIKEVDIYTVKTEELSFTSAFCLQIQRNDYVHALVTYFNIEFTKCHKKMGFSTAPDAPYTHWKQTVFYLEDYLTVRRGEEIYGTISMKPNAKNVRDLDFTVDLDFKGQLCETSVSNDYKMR
PRMT6, sequence (Q96LA8 whole entry, species assumed): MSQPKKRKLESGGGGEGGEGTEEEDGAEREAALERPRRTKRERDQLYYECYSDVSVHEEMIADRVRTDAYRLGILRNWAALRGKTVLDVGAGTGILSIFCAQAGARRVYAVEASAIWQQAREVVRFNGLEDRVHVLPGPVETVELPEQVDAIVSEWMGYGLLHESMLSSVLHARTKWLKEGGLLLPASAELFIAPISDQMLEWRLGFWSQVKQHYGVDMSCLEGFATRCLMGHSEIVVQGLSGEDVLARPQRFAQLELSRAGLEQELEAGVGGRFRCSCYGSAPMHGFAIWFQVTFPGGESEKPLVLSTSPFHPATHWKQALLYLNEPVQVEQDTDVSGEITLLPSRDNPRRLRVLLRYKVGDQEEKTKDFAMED

Compound | inhibition at 10 µM (PRMT8) | inhibition at 10 µM (PRMT6) | inhibition at 10 µM (PRMT1) | inhibition at 10 µM (PRMT4) | inhibition at 10 µM (PRMT3) | IC50 (PRMT1) | PRMT6 inhibition (PRMT6; 10 μM)
Nc1ncnc2c1ncn2[C@@H]1O[C@H](CSCCCNC(=O)NCc2ccc3c(c2)OCO3)[C@@H](O)[C@H]1O [Compound 7o] | 7% | 89% | 5% | 42% | 5% | – | –
Nc1ncnc2c1ncn2[C@@H]1O[C@H](CSCCCNCc2cccc(-c3cccc4cn[nH]c34)c2)[C@@H](O)[C@H]1O [Compound 10t] | 72% | 87% | 69% | 99% | 22% | – | –
Nc1cccc(-c2cccc(CNCCSC[C@H]3O[C@@H](n4cnc5c(N)ncnc54)[C@H](O)[C@@H]3O)c2)c1 [Compound 10l] | 62% | 53% | 7% | 100% | 8% | – | –
Nc1ncnc2c1ncn2[C@@H]1O[C@H](CSCCNCc2cccc(-c3ccccc3O)c2)[C@@H](O)[C@H]1O [Compound 10j] | 56% | 43% | 25% | 99% | 10% | – | –
Nc1ncnc2c1ncn2[C@@H]1O[C@H](CSCCNC(=O)NCc2ccc(-c3ccc(O)cc3)cc2)[C@@H](O)[C@H]1O [Compound 8c] | 3% | 82% | 21% | 42% | 10% | – | –
Nc1ncnc2c1ncn2[C@@H]1O[C@H](CSCCNC(=O)NC2CCCCC2)[C@@H](O)[C@H]1O [Compound 7i, 1-(2-((((2S,3S,4R,5R)-5-(6-amino-9H-purin-9-yl)-3,4-dihydroxytetrahydrofuran-2-yl)methyl)thio)ethyl)-3-cyclohexylurea] | -10% | -12% | 6% | 34% | 2% | – | –
Nc1ncnc2c1ncn2[C@@H]1O[C@H](CSCCNC(=O)NCc2ccc(-c3cc[nH]n3)cc2)[C@@H](O)[C@H]1O [Compound 8f] | 2% | -6% | 27% | 17% | 9% | – | –
Nc1ncnc2c1ncn2[C@@H]1O[C@H](CSCCNCc2cccc(-c3cccc(F)c3)c2)[C@@H](O)[C@H]1O [Compound 10c] | 68% | 49% | 11% | 100% | 12% | – | –
Nc1ncnc2c1ncn2[C@@H]1O[C@H](CSCCNC(=O)Nc2ccccc2Br)[C@@H](O)[C@H]1O [Compound 7m] | 13% | 11% | 10% | 81% | 55% | – | –
Nc1ncnc2c1ncn2[C@@H]1O[C@H](CSCCNCc2cccc(-c3ccc(C(F)(F)F)cc3)c2)[C@@H](O)[C@H]1O [Compound 10e] | 67% | 57% | 2% | 99% | 15% | – | –

The remaining lines, values ahead:

inhibition at 10 µM (PRMT8) | inhibition at 10 µM (PRMT6) | inhibition at 10 µM (PRMT1) | inhibition at 10 µM (PRMT4) | inhibition at 10 µM (PRMT3) | IC50 (PRMT1) | PRMT6 inhibition (PRMT6; 10 μM) | Compound
20% | 20% | 8% | 13% | 6% | – | – | Nc1ncnc2c1ncn2[C@@H]1O[C@H](CSCCOc2ccc(-c3ccc(O)cc3)cc2)[C@@H](O)[C@H]1O [Compound 14b]
74% | 88% | 76% | 36% | 3% | 920 ± 91 nM | – | N=C(NCCCSC[C@H]1O[C@@H](n2cnc3c(NCCCc4ccccc4)ncnc32)[C@H](O)[C@@H]1O)NCC1CC1 [Compound 19f]
39% | 3% | 3% | 17% | 6% | – | – | Nc1ncnc2c1ncn2[C@@H]1O[C@H](CSCCOc2ccc(-c3ccoc3)cc2)[C@@H](O)[C@H]1O [Compound 14c]
40% | 13% | 5% | 62% | 5% | – | – | Nc1ncnc2c1ncn2[C@@H]1O[C@H](CSCCOc2ccc(-c3cccc(O)c3)cc2)[C@@H](O)[C@H]1O [Compound 14f]
74% | 79% | 89% | 37% | 13% | 1300 ± 66 nM | – | N=C(NCCCN)NCCCSC[C@H]1O[C@@H](n2cnc3c(NCCCc4ccccc4)ncnc32)[C@H](O)[C@@H]1O [Compound 19i]
86% | 92% | 83% | 54% | 2% | 460 ± 74 nM | – | N=C(NCCCSC[C@H]1O[C@@H](n2cnc3c(NCCCc4ccccc4)ncnc32)[C@H](O)[C@@H]1O)Nc1ccccc1 [Compound 19j]
85% | 84% | 94% | 47% | 14% | 650 ± 62 nM | – | CCCCNC(=N)NCCCSC[C@H]1O[C@@H](n2cnc3c(NCCCc4ccccc4)ncnc32)[C@H](O)[C@@H]1O [Compound 19a]
22% | 91% | 2% | -4% | 13% | – | selective inhibition to PRMT6 | COc1cc2nc(-c3ccc(O)cc3)nc(NCCSC[C@H]3O[C@@H](n4cnc5c(N)ncnc54)[C@H](O)[C@@H]3O)c2cc1OC [Compound 12b]
42% | 18% | 16% | 51% | 3% | – | – | Nc1ncnc2c1ncn2[C@@H]1O[C@H](CSCCOc2ccc(-c3ccc(F)c(O)c3)cc2)[C@@H](O)[C@H]1O [Compound 14d]
25% | 13% | 2% | 10% | 4% | – | – | COc1cc2nc(-c3cccc(O)c3)nc(NCCSC[C@H]3O[C@@H](n4cnc5c(N)ncnc54)[C@H](O)[C@@H]3O)c2cc1OC [Compound 12g]
35% | 43% | 15% | 62% | 15% | – | – | COc1cc2nc(-c3cccc(F)c3)nc(NCCSC[C@H]3O[C@@H](n4cnc5c(N)ncnc54)[C@H](O)[C@@H]3O)c2cc1OC [Compound 12c]
28% | 7% | 7% | 22% | 16% | – | – | Nc1ncnc2c1ncn2[C@@H]1O[C@H](CSCCOc2ccc(-c3cncnc3)cc2)[C@@H](O)[C@H]1O [Compound 14e]
